Experimental data reported in patent publication US12655116B2, “Substituted isophthalic acid diamides” (Bayer Aktiengesellschaft, priority 2020, dated 2026).

Key:
PHBPU [1] = assay: Post-emergence herbicidal action against PHBPU; type: in vivo, Pharbitis purpurea; conditions: Ipomoea purpurea, 504 h; for pest or weed control at 20 g/ha: dosage 20 g/ha
Method in brief: (§1)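 Greenhouse plants in sandy loam were sprayed at the one-leaf stage, 2 to 3 weeks after sowing, with WP or EC formulations as aqueous suspension or emulsion (600 to 800 l/ha water, 0.2% wetting agent). Visual damage was scored about 3 weeks later versus untreated controls, 0% = like control, 100% = dead.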

AVEFA [2] = assay: Pre-emergence herbicidal action against AVEFA; type: in vivo, Avena fatua; conditions: Avena fatua, 504 h, pre-emergence
Method in brief: (§2)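 Pre-emergence soil-surface spray of formulated compound (WP or EC; 600 to 800 l/ha; 0.2% wetting agent) over seeds sown in sandy loam. After 3 weeks under greenhouse conditions, damage is estimated visually in percent against untreated plants.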

ALOMY [3] = assay: Post-emergence herbicidal action against ALOMY; type: in vivo, Alopecurus myosuroides; conditions: Alopecurus myosuroides, 504 h, visual assessment about 3 weeks after treatment vs untreated controls; for pest or weed control at 5 g/ha: dosage 5 g/ha; for pest or weed control at 20 g/ha: dosage 20 g/ha
Method in brief: as §1

ECHCG [4] = assay: Post-emergence herbicidal action against ECHCG; type: in vivo, Echinochloa crus-galli; conditions: Echinochloa crus-galli, 504 h; for pest or weed control at 5 g/ha: dosage 5 g/ha; for pest or weed control at 20 g/ha: dosage 20 g/ha
Method in brief: as §1

LOLRI [5] = assay: Post-emergence herbicidal action against LOLRI; type: in vivo, Lolium rigidum; conditions: Lolium rigidum, 504 h, dosage 20 g/ha
Description: Seeds of monocotyledonous and dicotyledonous weed and crop plants are laid out in sandy loam soil in wood-fiber pots, covered with soil and cultivated in a greenhouse under good growth conditions. 2 to 3 weeks after sowing, the test plants are treated at the one-leaf stage. The compounds of the invention, formulated in the form of wettable powders (WP) or as emulsion concentrates (EC), are then sprayed onto the green parts of the plants in the form of an aqueous suspension or emulsion at a water application rate equivalent to 600 to 800 l/ha, with addition of 0.2% wetting agent. After the test plants have been left to stand in the greenhouse under optimal growth conditions for about 3 weeks, the action of the preparations is assessed visually in comparison to untreated controls (herbicidal action in percent (%): 100% activity=the plants have died, 0% activity=like control plants). […] The tables below illustrate, in an illustrative manner, the post-emergence herbicidal action of the compounds of the invention, the herbicidal activity being stated in percent.

ECHCG [6] = assay: Pre-emergence herbicidal action against ECHCG; type: in vivo, Echinochloa crus-galli; conditions: Echinochloa crus-galli, 504 h, 80 g/ha
Method in brief: as §2

AMARE [7] = assay: Pre-emergence herbicidal action against AMARE; type: in vivo, Amaranthus retroflexus; conditions: Amaranthus retroflexus, 504 h, scored visually after 3 weeks vs untreated controls, 100% = plants have died, 0% = like control plants
Method in brief: as §2

VIOTR = assay: Pre-emergence herbicidal action against VIOTR; type: in vivo, Viola tricolor; conditions: Viola tricolor, 504 h; for pest or weed control at 20 g/ha: dosage 20 g/ha; for pest or weed control at 80 g/ha: dosage 80 g/ha
Method in brief: as §2

LOLRI [8] = assay: Pre-emergence herbicidal action against LOLRI; type: in vivo, Lolium rigidum; conditions: Lolium rigidum, 504 h, 80 g/ha
Method in brief: as §2

AVEFA [9] = assay: Post-emergence herbicidal action against AVEFA; type: in vivo, Avena fatua; conditions: Avena fatua, 504 h, visual assessment about 3 weeks after treatment, 100% = plants have died, 0% = like control plants
Method in brief: as §1

MATIN [10] = assay: Pre-emergence herbicidal action against MATIN; type: in vivo, Matricaria inodora; conditions: Tripleurospermum inodorum, 504 h; for pest or weed control at 20 g/ha: dosage 20 g/ha; for pest or weed control at 80 g/ha: dosage 80 g/ha
Method in brief: as §2

SETVI [11] = assay: Post-emergence herbicidal action against SETVI; type: in vivo, Setaria viridis; conditions: Setaria viridis, 504 h; for pest or weed control at 20 g/ha: dosage 20 g/ha
Method in brief: as §1

ABUTH [12] = assay: Pre-emergence herbicidal action against ABUTH; type: in vivo, Abutilon theophrasti; conditions: Abutilon theophrasti, 504 h; for pest or weed control at 80 g/ha: scored visually after 3 weeks vs untreated controls (100% = plants have died, 0% = like control plants); for pest or weed control at 20 g/ha: dosage 20 g/ha, scored visually after 3 weeks vs untreated controls, 100% = plants have died, 0% = like control plants, read-out: Pre-emergence action against ABUTH (herbicidal activity in percent)
Method in brief: as §2

AMARE [13] = assay: Post-emergence herbicidal action against AMARE; type: in vivo, Amaranthus retroflexus; conditions: Amaranthus retroflexus, 504 h, 20 g/ha, visual assessment about 3 weeks after treatment, 100% = plants have died, 0% = like control plants
Method in brief: as §1

DIGSA [14] = assay: Pre-emergence herbicidal action against DIGSA; type: in vivo, Digitaria sanguinalis; conditions: Digitaria sanguinalis, 504 h; for pest or weed control at 20 g/ha: dosage 20 g/ha; for pest or weed control at 80 g/ha: dosage 80 g/ha
Method in brief: as §2

PHBPU [15] = assay: Pre-emergence herbicidal action against PHBPU; type: in vivo, Pharbitis purpurea; conditions: Ipomoea purpurea, 504 h, dosage 80 g/ha
Method in brief: as §2

SETVI [16] = assay: Pre-emergence herbicidal action against SETVI; type: in vivo, Setaria viridis; conditions: Setaria viridis, 504 h; for pest or weed control at 80 g/ha: dosage 80 g/ha
Method in brief: as §2

DIGSA [17] = assay: Post-emergence herbicidal action against DIGSA; type: in vivo, Digitaria sanguinalis; conditions: Digitaria sanguinalis, 504 h
Method in brief: as §1

ALOMY [18] = assay: Pre-emergence herbicidal action against ALOMY; type: in vivo, Alopecurus myosuroides; conditions: Alopecurus myosuroides, 504 h, pre-emergence; for pest or weed control at 80 g/ha: scored visually after 3 weeks vs untreated controls (100% = plants have died, 0% = like control plants)
Method in brief: as §2

VERPE [19] = assay: Post-emergence herbicidal action against VERPE; type: in vivo, Veronica persica; conditions: Veronica persica, 504 h
Method in brief: as §1

ABUTH [20] = assay: Post-emergence herbicidal action against ABUTH; type: in vivo, Abutilon theophrasti; conditions: Abutilon theophrasti, 504 h, visual assessment about 3 weeks after treatment vs untreated controls
Method in brief: as §1

POLCO = assay: Pre-emergence herbicidal action against POLCO; type: in vivo, Polygonum convolvulus; conditions: Fallopia convolvulus, 504 h, dosage 80 g/ha
Method in brief: as §2

VERPE [21] = assay: Pre-emergence herbicidal action against VERPE; type: in vivo, Veronica persica; conditions: Veronica persica, 504 h
Method in brief: as §2

MATIN [22] = assay: Post-emergence herbicidal action against MATIN; type: in vivo, Matricaria inodora; conditions: Tripleurospermum inodorum, 504 h
Method in brief: as §1

[23] = 20 g/ha, scored visually after 3 weeks, 100% = plants have died, 0% = like control plants

`Cn1nnnc1NC(=O)c1ccc(Br)c(C(=O)NCC(F)(F)F)c1Cl` [Example 1-181] gave a pest or weed control at 20 g/ha (PHBPU [1]) of 90%, a pest or weed control at 80 g/ha (AVEFA [2]) of 80% and a pest or weed control at 5 g/ha (ALOMY [3]) of 80%. It also gave a pest or weed control at 20 g/ha (ALOMY [3]) of 100%, a pest or weed control at 5 g/ha (ECHCG [4]) of 80% and a pest or weed control at 20 g/ha (ECHCG [4]) of 80%. The pest or weed control at 20 g/ha (LOLRI [5]) was 80%, the pest or weed control at 80 g/ha (ECHCG [6]) was 100% and the pest or weed control at 20 g/ha (AMARE [7]) was 100%. For the same compound, the pest or weed control at 80 g/ha (AMARE [7]) was 100%, the pest or weed control at 20 g/ha (VIOTR) was 100% and the pest or weed control at 80 g/ha (VIOTR) was 100%. It also gave a pest or weed control at 80 g/ha (LOLRI [8]) of 80%, a pest or weed control at 20 g/ha (AVEFA [9]) of 90% and a pest or weed control at 20 g/ha (MATIN [10]) of 90%. It also gave a pest or weed control at 80 g/ha (MATIN [10]) of 100%, a pest or weed control at 20 g/ha (SETVI [11]) of 90% and a pest or weed control at 80 g/ha (ABUTH [12]) of 100%. It also gave a pest or weed control at 20 g/ha (ABUTH [12]) of 90%, a pest or weed control at 20 g/ha (AMARE [13]) of 100% and a pest or weed control at 20 g/ha (DIGSA [14]) of 100%. For the same compound, the pest or weed control at 80 g/ha (DIGSA [14]) was 100%, the pest or weed control at 80 g/ha (PHBPU [15]) was 80% and the pest or weed control at 80 g/ha (SETVI [16]) was 100%. The pest or weed control at 5 g/ha (DIGSA [17]; 5 g/ha) was 90%, the pest or weed control at 20 g/ha (DIGSA [17]) was 90% and the pest or weed control at 80 g/ha (ALOMY [18]) was 100%. For the same compound, the pest or weed control at 20 g/ha (VERPE [19]) was 90%.
For `CCCNC(=O)c1c(C(F)(F)F)ccc(C(=O)Nc2nnnn2CC)c1C` [Example 2-32], the pest or weed control at 5 g/ha (PHBPU [1]; dosage 5 g/ha) was 80%, the pest or weed control at 20 g/ha (PHBPU [1]) was 90% and the pest or weed control at 80 g/ha (AVEFA [2]) was 90%. For the same compound, the pest or weed control at 20 g/ha (AVEFA [2]; [23]) was 90%, the pest or weed control at 5 g/ha (ALOMY [3]) was 90% and the pest or weed control at 20 g/ha (ALOMY [3]) was 100%. For the same compound, the pest or weed control at 5 g/ha (ECHCG [4]) was 80%, the pest or weed control at 20 g/ha (ECHCG [4]) was 90% and the pest or weed control at 20 g/ha (LOLRI [5]) was 80%. The pest or weed control at 80 g/ha (ECHCG [6]) was 100%, the pest or weed control at 5 g/ha (ABUTH [20]; dosage 5 g/ha) was 90% and the pest or weed control at 20 g/ha (ABUTH [20]; dosage 20 g/ha) was 90%. The pest or weed control at 80 g/ha (POLCO) was 90%, the pest or weed control at 20 g/ha (AMARE [7]) was 100% and the pest or weed control at 80 g/ha (AMARE [7]) was 100%. It also gave a pest or weed control at 20 g/ha (VIOTR) of 100%, a pest or weed control at 80 g/ha (VIOTR) of 100% and a pest or weed control at 80 g/ha (LOLRI [8]) of 90%. It also gave a pest or weed control at 5 g/ha (AVEFA [9]; 5 g/ha) of 90%, a pest or weed control at 20 g/ha (AVEFA [9]) of 100% and a pest or weed control at 20 g/ha (VERPE [21]; dosage 20 g/ha) of 90%. It also gave a pest or weed control at 80 g/ha (VERPE [21]; dosage 80 g/ha) of 100%, a pest or weed control at 20 g/ha (MATIN [10]) of 100% and a pest or weed control at 80 g/ha (MATIN [10]) of 100%. For the same compound, the pest or weed control at 5 g/ha (SETVI [11]; dosage 5 g/ha) was 80%, the pest or weed control at 20 g/ha (SETVI [11]) was 100% and the pest or weed control at 80 g/ha (ABUTH [12]) was 100%. It also gave a pest or weed control at 20 g/ha (ABUTH [12]) of 100%, a pest or weed control at 20 g/ha (AMARE [13]) of 100% and a pest or weed control at 20 g/ha (DIGSA [14]) of 100%. For the same compound, the pest or weed control at 80 g/ha (DIGSA [14]) was 100%, the pest or weed control at 80 g/ha (PHBPU [15]) was 90% and the pest or weed control at 20 g/ha (SETVI [16]; dosage 20 g/ha) was 100%. For the same compound, the pest or weed control at 80 g/ha (SETVI [16]) was 100%, the pest or weed control at 20 g/ha (DIGSA [17]) was 90% and the pest or weed control at 80 g/ha (ALOMY [18]) was 100%. It also gave a pest or weed control at 20 g/ha (ALOMY [18]; [23]) of 90%, a pest or weed control at 5 g/ha (VERPE [19]; 5 g/ha) of 90% and a pest or weed control at 20 g/ha (VERPE [19]) of 90%. For the same compound, the pest or weed control at 5 g/ha (MATIN [22]; dosage 5 g/ha) was 90% and the pest or weed control at 20 g/ha (MATIN [22]; dosage 20 g/ha) was 90%.
